Legend:
Porcine leukocyte LOX = target: T1, Porcine leukocyte LOX (Sus scrofa, UniProt P16469); test: Kinetics of oxygenation of linoleoylated substrates by leukocyte LOX; assay type: biochemical; conditions: porcine leukocyte LOX 1.5 units/ml, 100 mM phosphate buffer pH 7.5, 5 mM EDTA; for Vm: 0.03% Tween 20; for Km: substrate 3-100 μM, 0.03% Tween 20, 25° C.
T1 construct: purchased Cayman Chemical Co. (Ann Arbor, Mich., USA)
T1 sequence (P16469 1-663): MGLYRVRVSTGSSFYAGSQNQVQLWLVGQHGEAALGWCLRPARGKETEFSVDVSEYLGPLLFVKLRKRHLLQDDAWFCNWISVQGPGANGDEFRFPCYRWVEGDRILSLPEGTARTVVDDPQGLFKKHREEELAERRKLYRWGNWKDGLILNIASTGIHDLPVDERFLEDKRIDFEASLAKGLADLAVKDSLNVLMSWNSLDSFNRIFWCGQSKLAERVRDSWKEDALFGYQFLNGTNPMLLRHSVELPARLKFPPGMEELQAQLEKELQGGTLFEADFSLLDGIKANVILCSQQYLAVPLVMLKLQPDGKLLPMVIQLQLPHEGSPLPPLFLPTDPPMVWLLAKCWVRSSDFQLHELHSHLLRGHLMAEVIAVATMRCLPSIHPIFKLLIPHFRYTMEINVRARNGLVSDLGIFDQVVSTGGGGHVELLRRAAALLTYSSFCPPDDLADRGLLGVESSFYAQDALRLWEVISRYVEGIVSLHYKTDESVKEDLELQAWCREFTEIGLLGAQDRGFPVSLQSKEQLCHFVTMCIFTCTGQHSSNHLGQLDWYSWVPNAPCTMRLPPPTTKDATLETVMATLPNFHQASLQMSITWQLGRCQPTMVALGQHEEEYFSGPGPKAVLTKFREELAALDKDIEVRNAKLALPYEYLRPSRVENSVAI
Description: Data were expressed as means ±S.D. of results from at least three independent experiments.

[1] = target: T2, soybean lipoxygenase-1 (LOX-1) (Glycine max, UniProt P08170); test: Kinetics of oxygenation of linoleic acid, soybean lysoPC or linoleoyl-lysoPC by soybean LOX-1 (absorbance at 234 nm); assay type: biochemical; conditions: for Km: 50 mM borax buffer pH 9.0, 25° C., Lineweaver Burke plot; for Vm: soybean LOX-1, 50 mM borax buffer pH 9.0, 25° C., unit = one micromole conjugated diene per min
T2 construct: purchased Sigma-Aldrich Corp (St. Louis, Mo., USA) lipoxidase Type I-B
T2 sequence (P08170 1-839): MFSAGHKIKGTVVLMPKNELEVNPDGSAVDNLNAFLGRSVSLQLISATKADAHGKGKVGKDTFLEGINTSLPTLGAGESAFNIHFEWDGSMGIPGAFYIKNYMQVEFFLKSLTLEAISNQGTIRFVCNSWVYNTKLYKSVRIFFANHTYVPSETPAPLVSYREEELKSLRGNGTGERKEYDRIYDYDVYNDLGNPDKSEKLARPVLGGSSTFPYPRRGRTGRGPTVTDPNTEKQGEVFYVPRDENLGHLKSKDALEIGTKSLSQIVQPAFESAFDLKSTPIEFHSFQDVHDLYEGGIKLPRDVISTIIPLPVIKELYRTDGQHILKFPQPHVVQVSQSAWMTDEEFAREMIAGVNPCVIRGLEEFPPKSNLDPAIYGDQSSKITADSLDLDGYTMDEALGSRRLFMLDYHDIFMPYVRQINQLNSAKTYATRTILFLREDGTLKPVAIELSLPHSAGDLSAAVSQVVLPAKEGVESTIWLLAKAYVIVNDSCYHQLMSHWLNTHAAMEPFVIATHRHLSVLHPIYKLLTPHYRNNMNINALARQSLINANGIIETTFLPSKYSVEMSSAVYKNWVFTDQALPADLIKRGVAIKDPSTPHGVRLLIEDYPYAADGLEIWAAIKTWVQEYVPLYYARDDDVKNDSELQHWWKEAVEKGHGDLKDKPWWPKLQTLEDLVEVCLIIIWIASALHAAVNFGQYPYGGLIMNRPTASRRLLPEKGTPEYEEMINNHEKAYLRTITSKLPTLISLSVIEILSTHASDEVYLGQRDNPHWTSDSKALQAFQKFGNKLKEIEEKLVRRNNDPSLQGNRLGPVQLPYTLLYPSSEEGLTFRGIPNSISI
Experimental: Lipoxygenase-1 (LOX-1) activity was monitored at 25° C. by measuring the increase in absorbance at 234 nm due to the formation of hydroperoxide (ε234=25,000 M^−1 cm^−1) as previously reported (Axelrod et al, Methods Enzymol. 71 (1981) 441-451; Egmond et al, Eur. J. Biochem. 61 (1976) 93-100). […] One unit is defined as the amount of LOX-1 that can produce one micromole of conjugated diene per min.
LOX-1 was purified from soy bean lipoxidase preparation (Type I-B) according to the method of Finazzi Agro et al (Finazzi-Agro et al, Biochim. Biophys. Acta 326 (1973) 462-470). Briefly, soybean LOX-1 (100 mg) was dissolved in 0.1 M phosphate buffer (pH 6.8), and applied to DEAE Sephacel (1.5×25 cm). […] Protein amount was determined according to Lowry method (O. H. Lowry, N. J. Rosenbrough, A. L. Farr, R. J. Randall, J. Biol. Chem. 193 (1951) 265-275).
Next, the effect of linoleoyl-lysoPC concentration on LOX-1-catalyzed oxygenation of linoleoyl-lysoPC was examined.

SMILES	Vm (Porcine leukocyte LOX)	Km (Porcine leukocyte LOX)	Km [1]	Vm [1]	Vm ([1]; listed as linoleoyl-lysoPC)
CCCCC/C=C\C/C=C\CCCCCCCC(=O)O [Linoleic acid, linoleic acid]	32.7 ± 1.93 units/mg	31.2 ± 4.6 µM	12 ± 0.7 µM	114.3 ± 6.0 units/mg	–
CCCCC/C=C\C/C=C\CCCCCCCC(=O)OCC(O)COP(=O)([O-])OCC[N+](C)(C)C (stereo not drawn) [Linoleoyl-lysoPC, 1-linoleoyl Lysophosphatidylcholine]	14.42 ± 0.78 units/mg	15.1 ± 1.34 µM	12.9 µM	167.5 ± 10.4 units/mg	167.5 units/mg

Source: patent US20070264679A1, “Method for analyzing the activity of lipoxygenase using a water-soluble substrate” (Chungnam National University Industry Collaboration …, priority 2006, published 2007)
